The values below come from patent publication US20110104702A1, “Methods for Predicting Tumor Response to Chemotherapy and Selection of Tumor Treatment” (NATIONAL UNIVERSITY HOSPITAL, priority 2008, published 2011).

Assay [1] concerns cT3-T4 breast tumors. The assay can be described thus: Independent dataset: four cycles of pre-operative single agent docetaxel, pathological response. In kind it is in vivo, human. The text has this:
Next, we applied the 90-supergene panels for pathological response to the original cohort using unsupervised hierarchical clustering, and found, expectedly, the predictors to be highly accurate; the division yielded groups with different PFS, though not statistically significant (Table 1). To validate the pathological response signatures further, we applied them, using SVM, in an independent set of 18 patients treated with four cycles of neoadjuvant three-weekly single agent docetaxel prior to surgery, who had tumor biopsy before and 3 weeks after one chemotherapy cycle. Pathological response definition was similar to our original cohort. Consistent with the findings for the PFS predictors, T2 outperformed T1 signatures, with the AUC of ROC being 0.631 (95% CI 0.350-0.912) for T2 compared to 0.462 (95% CI 0.190-0.733) and 0.446 (95% Cl 0.161-0.731) for TΔ and T1 respectively. T2 signatures accurately identified 77% of poor pathological responders, compared to 54% for both T1 and TΔ (FIG. 2c-d).
An independent dataset comprising of 18 breast cancer patients treated with pre-operative chemotherapy followed by surgery as part of another clinical protocol at our institution was used to validate the gene expression signatures that predict for pathological response. Validation was performed using SVM. In brief, patients from this independent dataset had cT3-T4 breast tumors and were treated with four cycles of pre-operative single agent docetaxel every three weeks. […] Patients underwent lumpectomy or mastectomy and axillary clearance after chemotherapy, and were classified as good (5/18) and poor (13/18) pathological responders using the same criteria as described in our primary cohort. This dataset was not used to validate the PFS signatures as the median follow-up was short at 18.5 months, and only 5/18 had progressed at the time of analysis.

Assay [2] relates to locally advanced breast cancers. The settings on record: weekly doxorubicin 14 mg/m^2 for 16 weeks, n=20; cited from earlier work.
Setting [3] is: four cycles of docetaxel every three weeks, then surgery, n=18.

`CC(=O)O[C@@]12CO[C@@H]1C[C@H](O)[C@@]1(C)C(=O)[C@H](O)C3=C(C)[C@@H](OC(=O)[C@H](O)[C@@H](NC(=O)OC(C)(C)C)c4ccccc4)C[C@@](O)([C@@H](OC(=O)c4ccccc4)[C@H]21)C3(C)C` [docetaxel]: in assay [1] (setting [3]), the good pathological responders is 5/18 and the poor pathological responders is recorded as 13/18. Further, the “patients progressed at the time of analysis” value in assay [1] (median follow-up 18.5 months) was 5/18.

Take `COc1cccc2c1C(=O)c1c(O)c3c(c(O)c1C2=O)C[C@@](O)(C(=O)CO)C[C@@H]3O[C@H]1C[C@H](N)[C@H](O)[C@H](C)O1` [doxorubicin]: in assay [2], the median relapse-free survival is given as 25 months and the patients relapsed was 12/20.
